Assay results from patent US5846823A, “Expression of human D4 dopamine receptors in stable cell lines” (Allelix Biopharmaceuticals, priority 1996, dated 1998).

Target: T1, human D4 receptor (Homo sapiens, UniProt P21917, DEL265-296)
T1 construct: expressed in transfected cells
T1 sequence (P21917 with tags, fused parts or gaps DEL265-296): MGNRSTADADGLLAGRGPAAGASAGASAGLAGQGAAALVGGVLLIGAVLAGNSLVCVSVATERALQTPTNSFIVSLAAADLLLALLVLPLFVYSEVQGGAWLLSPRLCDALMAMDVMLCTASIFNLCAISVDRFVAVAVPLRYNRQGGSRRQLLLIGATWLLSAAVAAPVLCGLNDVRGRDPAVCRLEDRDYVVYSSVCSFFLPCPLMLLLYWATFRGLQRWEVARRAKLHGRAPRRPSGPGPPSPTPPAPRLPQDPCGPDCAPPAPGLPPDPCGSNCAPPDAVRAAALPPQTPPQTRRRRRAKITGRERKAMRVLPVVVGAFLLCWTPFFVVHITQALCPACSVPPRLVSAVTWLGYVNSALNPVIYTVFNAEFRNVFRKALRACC
Assay: [3H]Spiperone ligand binding assay (Scatchard analysis) on membranes of stable D4 cell line
Conditions: stably expressed human D4 receptor, Scatchard analysis (FIG. 4)
Description: Cell membranes were prepared from 150 mM tissue culture dishes by suspending the cells in assay buffer [50 mM Tris-HCl, pH 7.4 containing 5 mM EDTA, 1.5 mM CaCl2, 5 mM MgCl2, 5 mM KCl, 120 NaCl]. The cells were homogenized using a Teflon pestle. Unbroken cells and nuclei were pelleted at 39,000×g for 15 minutes and the resulting pellet was resuspended in assay buffer at a concentration of 150-250 μg protein/ml.
Assays were terminated by washing 3×4 ml with cold 50 mM Tris-HCl, pH 7.4, followed by rapid filtration through a cell harvester and filters were monitored for tritium using the L56000SC (Beckman) counter. Binding data was analyzed using the GRAFIT software package.

- maximum spiperone-binding of the D4 receptor: 4,344 fmol/mg protein
SMILES: O=C(CCCN1CCC2(CC1)C(=O)NCN2c1ccccc1)c1ccc(F)cc1 [[^3 H]-labelled spiperone, spiperone]
